Laboratory results as given in patent publication US20220154189A1, “COMPOSITIONS AND METHODS FOR THE TREATMENT OF KRAS ASSOCIATED DISEASES OR DISORDERS” (Dicerna Pharmaceuticals, Inc., priority 2019, published 2022).

Key:
Pan02 tumors [1] = assay: tumor growth inhibition, Pan02 tumors in C57BL/6 mice; assay type: in vivo, mouse
Experimental: (§1) 6 to 8 week old immunocompetent or immunocompromised mice (C57BL/6/Nude) were injected subcutaneously with 2×10^6 Pan02 (mouse pancreatic cell line) or 5×10^6 Panc1 (human pancreatic cell line) tumor cells under the right shoulder. Tumor volume was measured every 2-3 days a week to monitor tumor growth. Dosing was initiated when the tumors reached about 200 mm^3. For tumor growth inhibition studies, animals were randomized and assigned to different cohorts and subjected to dosing cycles. KRAS1-formulated LNP (“KRAS/LNP”) or Placebo (scrambled KRAS dsRNAi) formulated LNP was given intravenously via lateral tail vein at a total volume of 10 ml/kg. Immuno-modulatory agents (CSF1 antibody, TGF-β inhibitor, or checkpoint inhibitors) were given intraperitoneally or orally at a volume of 10 ml/kg. Trametinib (MEK inhibitor) was given orally at a total volume of 10 ml/kg.
(§2) Mouse pancreatic cell line Pan02 was obtained from NCI, and human pancreatic cell line Panc1 cells were obtained from ATCC (Manassas, Va.) and grown in RPMI/DMEM medium supplemented with 10% FBS. Pan02 is a murine PDAC cell line with KRAS G12D mutation. Panc1 is a human PDAC cell line with KRAS G1D mutation.
To see if the KRAS knockdown observed could be translated into growth inhibition, Pan02 tumors were implanted as described above, and when they reached the right sizes (e.g., about 200 mm^3), they were sorted and treated with KRAS/LNP or Placebo/LNP (cKras) at 10 mpk once a week for 3 weeks, and the tumor growth was monitored.

Pan02 tumors [2] = assay: qPCR of tumor microenvironment and stromal activation marker mRNAs in Pan02 tumors; assay type: in vivo, mouse
Experimental: To see if a single KRAS/LNP treatment would lead to modulation of the tumor microenvironment, samples from the study described in Example 3 (FIGS. 5A-B) were analyzed for certain T-cell markers (CD8 and FoxP3) and chemokines (CXCL1). FoxP3 is a marker for immunosuppressive T cells (Tregs), which play an important role in regulating or suppressing other cells of the immune system. CXCL1 is a chemokine that actively recruits suppressive molecules such as Tregs and myeloid-derived suppressor cells to the tumor microenvironment.
To see if continuous KRAS inhibition would lead to modulation of the tumor microenvironment, Pan02 tumors from the efficacy study described in Example 3 (FIG. 6) were collected 24 hours after the last dose and subjected to qPCR to measure mRNAs of immune cell markers (CD8, FoxP3), immune suppressive cytokines (CXCL1, CXCL5, and IL10), immune checkpoints (PD-L1) or stromal activation markers (TGF-0, Axin2, ROBO1, and CSF3). […] This in turn led to down-regulation of several key suppressive molecules (FoxP3, CXCL1, and CXCL5). […]
A similar study was repeated in Pan02 tumors as well. […] In this case, tumors were collected and analyzed for the mRNA markers that contribute to modulation of the tumor microenvironment and stromal activation.

Panc1 tumors = assay: tumor growth inhibition, human PDAC Panc1 tumors in nude mice; assay type: in vivo; settings: gemcitabine 50 mpk, several rounds
Experimental: as §1
as §2, with “[…] mutation. […]” for “G1D mutation.”

Cd274 (PD-L1) mRNA = assay: mRNA analysis of Cd274 (PD-L1) in Panc1 tumors; assay type: in vivo, human; settings: MEKi+KRAS DsiRNA treatment
Experimental: (§3) To see how trametinib performed in human PDAC, Panc1 tumors were implanted as described above and treated with trametinib (3 mg/kg/dose) as shown in FIG. 12A. Tumor measurements were taken throughout the entire study period to monitor the tumor growth. […] Tumors were collected before and after KRAS/LNP treatments for mRNA analysis.

KRAS = assay: mRNA analysis of KRAS in trametinib-resistant Panc1 tumors; assay type: in vivo, human; settings: trametinib-resistant Panc1 tumors after KRAS/LNP 5 mpk (qdx3), compared to resistant tumors without KRAS/LNP
Experimental: as §3

Pan02 tumors [3] = assay: FoxP3 and CD8 immunohistochemistry of Pan02 tumors; assay type: in vivo, mouse; settings: KRAS DsiRNA combined with an MEK inhibitor
KRAS mRNA [4] = assay: in vitro screen of KRAS DsiRNA constructs, KRAS mRNA expression in MIA PaCa2 cells; assay type: cell-based, human; settings: lipofectamine, 1 nM and 0.1 nM, 24 hours
Source text: A nucleic acid inhibitor molecule that targets the KRAS gene (KRAS1) was constructed. First, several 25/27-mer KRAS DsiRNAs (with no modifications except for three methyls on the 3′ end of the guide strand) were selected. These constructs were then converted into a nicked-tetraloop format, using the U/GG convention as 22-mers, such that bases came off the guide strand starting from the 5′ end. These DsiRNAs were screened in human pancreatic carcinoma (MIA PaCa2) cells in vitro using lipofectamine at 1 nM and 0.1 nM concentrations of each construct to determine the potency.

KRAS mRNA [5] = assay: KRAS mRNA expression in mouse tumor models using MIA PaCa2 and LS411N tumor cells; assay type: in vivo, human; settings: MIA PaCa 2 and LS411N tumor models, LNP-formulated tetraloops, 3 mg/kg daily for three days, 24 hours after
Experimental: FIG. 3B is a column scatter plot showing KRAS mRNA expression levels in a mouse tumor model using MIA PaCa2 tumor cells 24 hours after three-day daily administration of 3 mg/kg of KRAS nucleic acid inhibitor molecules as described in Example 1 and shown in FIG. 3A.
FIG. 3C is a column scatter plot showing KRAS mRNA expression levels in a mouse tumor model using MIA LS411N tumor cells 24 hours after three-day daily administration of 3 mg/kg of KRAS nucleic acid inhibitor molecules as described in Example 1 and shown in FIG. 3A.
The tetraloop sequences were tested in tumor models using MIA PaCa 2 and colon cancer LS411N cell lines. The best two from this screen (KRAS-465T and KRAS-446T) were then further modified to have a 4′-oxymethylphosphonate modification on the nucleotide at the 5′-end of the antisense strand (KRAS-465T/MOP and KRAS-446T/MOP). The sense strand of KRAS-465T/MOP contains SEQ ID NO: 13 (5′-[…]-3′), and the antisense strand of KRAS-465T/MOP contains SEQ ID NO: 14 (3′-[…]-5′, wherein underlining indicates a 4′-oxymethylphosphonate modification). The sense strand of KRAS-446T/MOP contains SEQ ID NO: 15 (5′-[…]-3′), and the antisense strand of KRAS-446T/MOP contains SEQ ID NO: 16 (3′-[…]-5′, wherein underlining indicates a 4′-oxymethylphosphonate modification).

[6] = Pan02 tumors, gemcitabine treatment without KRAS/LNP
[7] = Pan02 tumors, continuous KRAS inhibition (10 mpk weekly x3), 24 hours after last dose
[8] = Pan02 tumors, single KRAS/LNP treatment 10 mg/kg, 24 hours after last dose

Cc1cccc(-c2nn3c(c2-c2ccnc4ccc(C(N)=O)cc24)CCC3)n1 [galunisertib]
tumor growth inhibition (Pan02 tumors [1]; orally 75 mpk (BID×2/cycle) for 2 weeks, vs Vehicle): about 50%

Nc1ccn([C@@H]2O[C@H](CO)[C@@H](O)C2(F)F)c(=O)n1 [gemcitabine, reference compound]
tumor growth, response to treatment (Pan02 tumors [1]; continuous gemcitabine treatment): became resistant | CXCL1 mRNA levels (Pan02 tumors [2]; Pan02 tumors treated with gemcitabine until resistant): increased | Axin2 mRNA (stromal activation marker) (Pan02 tumors [2]; [6]): lower | ROBO1 mRNA (stromal activation marker) (Pan02 tumors [2]; [6]): lower | TGF-β mRNA (stromal activation marker) (Pan02 tumors [2]; [6]): lower | tumor growth, response to treatment (Panc1 tumors): responded nicely at the beginning, they became resistant after several rounds of treatment

KRAS1: tetraloop construct with 4′-oxymethylphosphonate at nucleotide 1 of the antisense strand; sense SEQ ID NO: 13, antisense SEQ ID NO: 14 (sense CUAAAUCAUUUGAAGAUAUAGCAGCCGAAAGGCUGC; antisense NAUAUCUUCAAAUGAUUUAGGG; tetraloop DsiRNA, 4'-oxymethylphosphonate on antisense 5'-terminal U, other modifications not given here)
tumor growth (Pan02 tumors [1]; 10 mpk once a week for 3 weeks, i.v., vs Placebo/LNP): complete growth inhibition | Axin2 mRNA (stromal activation marker) (Pan02 tumors [2]; [7]): slightly increased | CSF3 mRNA (stromal activation marker) (Pan02 tumors [2]; [7]): slightly increased | CXCL1 mRNA (Pan02 tumors [2]; [7]): down-regulation | CXCL5 mRNA (Pan02 tumors [2]; [7]): down-regulation | Cd8 mRNA (Pan02 tumors [2]; [7]): increased | Cd274 (PD-L1) mRNA (Pan02 tumors [2]; [7]): increased | FoxP3 mRNA (Pan02 tumors [2]; [7]): down-regulation | ROBO1 mRNA (stromal activation marker) (Pan02 tumors [2]; [7]): slightly increased | TGF-0 mRNA (stromal activation marker) (Pan02 tumors [2]; [7]): slightly increased | CD8 mRNA expression level (Pan02 tumors [2]; [8]): unchanged | CXCL1 mRNA expression level (Pan02 tumors [2]; [8]): significantly decreased | FoxP3 mRNA expression level (Pan02 tumors [2]; [8]): significantly decreased | CXCL1 mRNA levels (Pan02 tumors [2]; gemcitabine-resistant Pan02 tumors, single KRAS1 treatment): not brought down to baseline | Cd274 (PD-L1) mRNA levels (Cd274 (PD-L1) mRNA): increased | KRAS knockdown (KRAS): 40-50% | CD8 expression by immunohistochemistry (Pan02 tumors [3]): increased | FoxP3 expression by immunohistochemistry (Pan02 tumors [3]): reduced

KRAS-194: 25/27-mer KRAS DsiRNA; sense strand SEQ ID NO: 1, antisense strand SEQ ID NO: 2 (sense GGCCUGCUGAAAAUGACUGAAUATA; antisense UAUAUUCAGUCAUUUUCAGCAGGCCUC; Dicer-substrate siRNA, chemical modification pattern not given here)
KRAS mRNA expression, ranking of potency in the in vitro screen (KRAS mRNA [4]): best three

KRAS-446: 25/27-mer KRAS DsiRNA; sense strand SEQ ID NO: 5, antisense strand SEQ ID NO: 6 (sense GUAUUUGCCAUAAAUAAUACUAAAT; antisense AUUUAGUAUUAUUUAUGGCAAAUACAC; Dicer-substrate siRNA, chemical modification pattern not given here)
KRAS mRNA expression, ranking of potency in the in vitro screen (KRAS mRNA [4]): best three

KRAS-446T: KRAS tetraloop construct; sense strand SEQ ID NO: 15, antisense strand SEQ ID NO: 19 (sense GUAUUUGCCAUAAAUAAUAAGCAGCCGAAAGGCUGC; antisense UUAUUAUUUAUGGCAAAUACGG; sense strand forms tetraloop hairpin, modification pattern not given here)
KRAS mRNA expression, ranking in the tumor model screen (KRAS mRNA [5]): best two

KRAS-465: 25/27-mer KRAS DsiRNA; sense strand SEQ ID NO: 3, antisense strand SEQ ID NO: 4 (sense CUAAAUCAUUUGAAGAUAUUCACCA; antisense UGGUGAAUAUCUUCAAAUGAUUUAGUA; Dicer-substrate siRNA, chemical modification pattern not given here)
KRAS mRNA expression, ranking of potency in the in vitro screen (KRAS mRNA [4]): best three

KRAS-465T: KRAS tetraloop construct; sense strand SEQ ID NO: 13, antisense strand SEQ ID NO: 18 (sense CUAAAUCAUUUGAAGAUAUAGCAGCCGAAAGGCUGC; antisense UAUAUCUUCAAAUGAUUUAGGG; sense strand forms tetraloop hairpin, modification pattern not given here)
KRAS mRNA expression, ranking in the tumor model screen (KRAS mRNA [5]): best two
